Earlier results in paper PMC3090270 (Structure (London, England : 1993), 2010).

Assays:
[1] = system: cardiac myocytes; details: H2O2 treatment, ref Brennan et al., 2006
[2] = system: RI subunits; details: ref Huang et al., 1997b (D-AKAP1), 1997a (D-AKAP2), Reinton et al., 2000 (AKAP220), Gronholm et al., 2003 (Merlin), Li et al., 2001 (Pap7)

Compound | disulfide formation in RIα D/D [1] | nuclear localization of PKA [1] | binding to RI subunits (dual-specific) [2]
OO [H2O2] | increased disulfide bond formation | nuclear localization of PKA | 
AKAP220: dual-specific AKAP |  |  | bind RI subunits
